Test results: ChEMBL document CHEMBL5606460, “ASAP - DENV-2 NS2B-NS3 protease fluorescence single point” (2024)

What was measured:
[1] = biological target: Genome polyprotein (dengue virus type 2) (UniProt P29990)
[2] = biological target: Genome polyprotein (dengue virus type 2) (UniProt P29990); settings: Thailand/16681/1984, Concentration 25.0 uM, Number of replicates 1.0
[3] = Thailand/16681/1984, Concentration 50.0 uM, Number of replicates 1.0
[4] = Thailand/16681/1984, Concentration 100.0 uM, Number of replicates 1.0
[5] = Thailand/16681/1984, Concentration 200.0 uM, Number of replicates 1.0
[6] = Thailand/16681/1984, Concentration 150.0 uM, Number of replicates 1.0

Row | SMILES | inhibition [1, 3] | inhibition [1, 4] | inhibition [1, 5] | inhibition [1, 6] | further results
1 | O=C(NCc1ccco1)c1csc(Br)c1 | -4.81% | 6.83% | 0.818% |  | 
2 | O=c1oc2cccnc2n1CC=Cc1ccccc1 |  | 18.7% | 16.8% | -5.05% | 
3 | Nc1ccc2ccc(B(O)O)cc2c1 |  |  |  |  | inhibition [2]: 15.2%
4 | O=C(O)c1c(Br)sc2nnsc12 | -3.57% | -5.37% | 4.97% | -5.55% | 
5 | O=c1[nH]c(CSc2ccccc2Cl)nc2ccsc12 | -5.28% | 18% | 26% | -7.62% | 
6 | Clc1snnc1CN1CCC(c2nc3ccccc3o2)CC1 | -8.6% | 2.94% | 8.81% | -7.28% | 
7 | Cc1cc(NS(=O)(=O)c2ccc(S(=O)(=O)F)cc2)c[nH]c1=O |  |  |  |  | inhibition [2]: 19.6%
8 | Cc1c(C=O)c2ccccn2c1C(=O)c1ccncc1 |  |  |  |  | inhibition [2]: 41.1%
9 | N=C(N)NCCC[C@H](NC(=O)[C@H](Cc1ccc(CN)cc1)NC(=O)c1ccccc1)B(O)O |  |  |  |  | inhibition ([1]; Thailand/16681/1984, Concentration 0.103 uM, Number of replicates 2.0, Standard deviation 1.1552277516231042 %): 13.2%; inhibition ([1]; Thailand/16681/1984, Concentration 0.309 uM, Number of replicates 2.0, Standard deviation 1.403761128919186 %): 39.2%; inhibition ([1]; Thailand/16681/1984, Concentration 0.926 uM, Number of replicates 2.0, Standard deviation 1.9316423333512027 %): 73.2%; inhibition ([1]; Thailand/16681/1984, Concentration 2.78 uM, Number of replicates 2.0, Standard deviation 0.6346068363669732 %): 91.6%; inhibition ([1]; Thailand/16681/1984, Concentration 8.33 uM, Number of replicates 2.0, Standard deviation 0.06829499639101128 %): 97.4%; inhibition ([1]; Thailand/16681/1984, Concentration 25.0 uM, Number of replicates 2.0, Standard deviation 0.08100823932985672 %): 98.5%
10 | O=c1ccn(Cc2cc(=O)n3ccccc3n2)c2ccsc12 | -1.76% | 3.86% | 4.39% | -8.57% | 
11 | O=C(NCc1nccs1)c1sccc1Cl | 0.507% | 4.39% | -1.05% | -3.58% | 
12 | c1csc(-c2nnc(Sc3ncnc4sccc34)o2)c1 | -7.64% | 5.5% | 9.38% | 1.07% | 
13 | O=S(=O)(c1cccs1)N1CCN(CC=Cc2ccccc2)CC1 | -7.46% | 21.8% | 2.78% | -8.18% | 
14 | Brc1ccsc1CSc1cnn[nH]1 | -4.71% | 11.3% | 11% |  | 
15 | [O-][S@@+](Cc1nc(-c2cccs2)no1)c1cccs1 | 0.907% | 3.98% | 5.82% |  | 
16 | Cc1nc(C=O)c2ccccn12 |  |  |  |  | inhibition [2]: 33.3%
17 | Brc1cnn(C2CCN(Cc3csnn3)CC2)c1 | -3.22% | 5.64% | 5.63% |  | 
18 | Brc1cccc2cn(Cc3ncccn3)nc12 | -7.17% | 6.27% | 14.4% | -8.46% | 
19 | FC(F)(F)c1nc(CNCc2cocn2)cs1 |  | 1.67% | -3.73% | -9.44% | 
20 | c1ccc2nc(SCc3cn4ccccc4n3)cnc2c1 | -5.61% | 10.2% | 30.9% | 7.18% | 
21 | O=Cc1ccc(N2CCC(C(=O)O)CC2)o1 |  |  |  |  | inhibition [2]: 40.9%

Row | SMILES | inhibition [1, 3] | inhibition [1, 4] | inhibition [1, 5] | inhibition [1, 6] | further results
22 | Cc1nnsc1Cn1ccc(Br)n1 | -5.41% | 0.654% | -4.2% | -3.97% | 
23 | O=c1ccccn1-c1ncc(Br)cn1 | -2.83% | -4.93% | 1.63% | -7.63% | 
24 | CCSc1nnc(SCCn2nc3ccccn3c2=O)s1 |  | 5.4% | 2.68% |  | 
25 | O=Cc1ccc(N2CCC(C(=O)O)CC2)cc1 |  |  |  |  | inhibition [2]: 47.6%
26 | N#Cc1csc(CSc2nnc(C(F)(F)F)s2)n1 |  | -9.01% |  | -4.46% | 
27 | O=S(=O)(CCOc1ccccc1)c1nccs1 | -5.02% | -2.8% |  |  | 
28 | c1csc(CSc2nnc(Cn3cncn3)o2)c1 |  | 4.46% | -3.48% |  | 
29 | COc1nc(Cl)c(CSc2nc(C)co2)s1 |  | 2.83% | 12.2% | -6.96% | 
30 | O=C(O)c1sc2cccnc2c1Br | -8.71% | 12% | 2.09% |  | 
31 | c1nnc(SCCCSc2nncs2)s1 | -6.11% | -7.13% | -0.768% | -4.63% | 
32 | CC[C@H]1CO[C@H](C)CN1c1ccc(C=O)cn1 |  |  |  |  | inhibition [2]: 41.1%
33 | COc1ccc2c(O)nn(S(=O)(=O)c3ccc(C(=O)O)cc3)c2c1 |  | 5.93% | -6.38% |  | 
34 | CN(C)c1ccc(C=C(C#N)C(N)=O)cc1 |  |  |  |  | inhibition [2]: 20.8%
35 | Cc1nnc(CSc2ncnc3sccc23)o1 | 8.23% | 30.9% | 55% | 40.5% | 
36 | N#Cc1ccc(OCCn2nnn(-c3ccccc3)c2=O)cc1 | -7.79% | -0.08% | -2.04% | -4.33% | 
37 | COCc1nn(CC#Cc2ccc(Cl)cc2)c(=O)o1 | -7.03% | 5.18% | 2.77% | -4.23% | 
38 | Cc1nnnn1Cc1ncc(Br)s1 |  |  | -5% |  | 
39 | O=c1c2cccn2cnn1Cc1cnc(Cl)s1 | -5.2% | 0.188% | 7.35% | -0.072% | 
40 | Nc1nc(S(=O)(=O)c2ccccc2)c(Cl)s1 |  | -1.35% |  |  | 
41 | O=Cc1nc(-c2ccccc2Cl)n2ccccc12 |  |  |  |  | inhibition [2]: 20.2%
42 | c1ccc2[nH]c(CC3CCN(Cc4nccs4)CC3)nc2c1 |  | -1.22% | -8.35% |  | 

Row | SMILES | inhibition [1, 3] | inhibition [1, 4] | inhibition [1, 5] | inhibition [1, 6] | further results
43 | NC(=O)c1ccc(Cn2nnc(C=Cc3ccccc3)n2)cc1 | -4.9% | 8.5% | 12.7% | 4.33% | 
44 | N#Cc1ccc(S(=O)(=O)CCn2nc(-c3ccco3)oc2=O)cc1 | -4.79% | 5.55% | 2.14% |  | 
45 | Cn1c(Sc2nc3ccccc3o2)nc2sccc2c1=O | -1.81% | 6.37% | -0.609% | -7.45% | 
46 | Cn1ncnc1Sc1nc(C2CCCC2)ns1 | -3.66% | 5.27% | 3.96% | -9.35% | 
47 | C[S@@+]([O-])c1nncn1Cc1ccc(Cl)s1 |  | 0.166% | -6.67% |  | 
48 | FC(F)(F)c1nnc(COc2cncnc2)s1 |  | -9.02% | -8.02% |  | 
49 | O=S1(=O)CCN(CC#Cc2ccc3sncc3c2)CC1 |  | -9.23% | 2.54% |  | 
50 | O=Cc1ccc(N2CCCCCC2)cc1 |  |  |  |  | inhibition [2]: 32.8%
51 | O=c1c2ccccc2nnn1CSc1nnc(-c2ccccc2)o1 | 2.98% | 36.2% | 52.5% | 31.6% | 
52 | Cc1c(C=O)c2ccccn2c1C#N |  |  |  |  | inhibition [2]: 30.7%
53 | Brc1nc(Br)n(Cc2cscn2)n1 | -6.97% | 2.39% | -1.34% | -9.57% | 
54 | [O-][S@@+](Cc1ncccn1)c1ncccc1Br | -6.39% | 2.18% | -0.101% | -5.36% | 
55 | N=C(N)NCCC[C@H](NC(=O)c1nccs1)C(=O)N[C@@H](CCCCN)C(=O)N[C@@H](C(N)=O)c1ccc(OCc2ccc(C(F)(F)F)cc2)cc1 |  |  |  |  | inhibition ([1]; Thailand/16681/1984, Concentration 0.309 uM, Number of replicates 2.0, Standard deviation 3.0176373786002046 %): -3.85%; inhibition ([1]; Thailand/16681/1984, Concentration 0.926 uM, Number of replicates 2.0, Standard deviation 1.4110895026482932 %): 12.5%; inhibition ([1]; Thailand/16681/1984, Concentration 2.78 uM, Number of replicates 2.0, Standard deviation 1.2681150356250568 %): 36.5%; inhibition ([1]; Thailand/16681/1984, Concentration 8.33 uM, Number of replicates 2.0, Standard deviation 1.3787183923415196 %): 69.8%; inhibition ([1]; Thailand/16681/1984, Concentration 25.0 uM, Number of replicates 2.0, Standard deviation 1.0239143117161142 %): 89.5%
56 | c1cc(-c2nnc(NCc3nnn[nH]3)s2)no1 |  | -2.38% | -2.02% |  | 
57 | c1cc2sccc2c(N2CCN(Cc3ccc4cn[nH]c4c3)CC2)n1 |  | 8.61% | -0.953% |  | 
58 | O=Cc1ccc(N2CCCCC2)cc1 |  |  |  |  | inhibition [2]: 37.1%
59 | COC(=O)c1cc2scc(Br)c2[nH]1 | -5.44% | 11.7% | 7.72% |  | 
60 | c1ccc(C2CCN(Cc3ccc4nccnc4c3)CC2)nc1 | -8.13% | 3.52% | -1.29% | -6.13% | 
61 | Cc1sc2nc(-c3cccs3)[nH]c(=O)c2c1C | -5.01% | 0.922% | -9.15% |  | 
62 | O=c1c2ccccc2ncn1CCCn1cnc2ccccc2c1=O |  | 4.08% | 1.74% |  | 
63 | O=c1ccc(-n2cncn2)nn1CC=Cc1ccccc1 | -6.72% | -7% | -8.49% |  | 
